# Laboratory results: patent US11674967B2, “Method of identifying potential inhibitors of APO TNFα trimers” (UCB BIOPHARMA SRL, priority 2015, dated 2023)
# Experiments:
# [1] = target: TNFα (Homo sapiens, UniProt P01375); experiment: Monomer exchange mass spectrometry, compound pre-incubated with h-TNFα; assay type: binding; design: made in house; conditions: 1:1 complex mixed with m-TNFα, 18 hours
# Protocol: Human and mouse homotrimers of TNFα (H3 and M3 respectively) were incubated together and aliquots of the solution monitored by mass spectrometry appearance of the cross species heterotrimers. The mass spectrometric analysis confirmed that monomer exchange between native TNFα trimers was able to occur in solution. The exchange rate was slow and was monitored over a course of 4 hours before full equilibration was achieved (data not shown). The mechanism is unknown, although is it unlikely to involve formation of the dimeric forms as none of these were observed. Monomer exchange is likely to be occurring between pure human and mouse trimers, the mixing of mouse and human trimers simply makes this exchange visible by mass spectrometry.
# In a second series of experiments an excess of the compound of formula (3) was incubated with Human TNFα, the excess compound of formula (3) was then removed. Mass Spectral analysis confirmed that a 1:1 complex had been formed between the compound of formula (3) and h-TNFα. Mouse TNFα was now added to this sample which was then subjected to mass spectral analysis over a number of hours. After 18 hours there was no observed change in the composition of the sample. […] In addition, there was no evidence of formation of the M3L species and no evidence of formation of the unligated H3 species. […]
# [2] = target: T1, human TNFα trimer (Homo sapiens, UniProt P01375); experiment: RMSD of crystal structure of compound-bound TNFα trimer to Reference Structure Compound 34; conditions: Cα atoms of β-sheet residues, all three subunits, PyMOL
# T1 construct: His6Smt-tag (N, cleaved yes); made in house; host or cells: E. coli (vector pEMB54)
# Protocol: Cells were pre-cultured at 37° C. in rich media, induced with the addition of 0.1% arabinose and allowed to express overnight at 25° C. in vector pEMB54. This vector introduces a cleavable N-terminal His6Smt-tag. The cells were lysed and purified by Ni-NTA chelate chromatography. The fusion protein was eluted with buffer containing imidazole and cleaved by the addition of protease. The final cleaved TNFα protein was purified by a subtractive Ni chelate chromatography step to remove the fusion tag and further purified by size exclusion chromatography to remove the remaining impurities. The final TNFα product was typically concentrated to 20.0 mg/ml and flash frozen in liquid nitrogen.
# Purified human TNF[…] (20.0 mg/ml, VC 2043) was diluted to 4-7 mg/ml in 10 mM HEPES pH 7.5, 150 mM NaCl buffer followed by overnight incubation at 4° C. with 0.3-0.5 mM compound (1-2 molar excess). The TNF[…] compound complexes were crystallized by sitting drop vapor diffusion by mixing 0.5 μl of complex with 0.5 μl of 21.44% PEG 3350, 100 mM Tris, pH 9.0 (UCB1474433); or 22.0% PEG 3350, 100 mM glycine, 100 mM Tris, pH 8.5 (UCB1480595); or 25.6% PEG 3350, 100 mM Tris, pH 8.3, 3% xylitol (UCB5143079) or other formulation with varying precipitant concentration or additives over 100 μl of the same crystallization solution. Other formulations for other compounds include a range of PEG 3350 of 8-28%. Other PEG-like additives include PEG 1000 (8-18%) or PEG 2000 (10-13%). Other additives include MPD (5-13%) or 200 mM NaCl. Other buffers include 100 mM Hepes (pH 7-8), 100 mM Tris or bis-Tris (pH 6.7-9.0). Other non-PEG 3350 crystallization solutions consist of PEG 2000 (14-19%), 100 mM Hepes, pH 8, 25 mM arginine; or 17% PEG 10000, 200 mM ammonium acetate, 100 mM bis-Tris, pH 5.5; or 30% PEG 2000 MME, 100 mM sodium acetate, 100 mM Mes, pH 6.5.
# Crystals were briefly soaked in ethylene glycol and/or vitrified directly in liquid nitrogen for data collection.
# X-ray diffraction data were collected from a synchrotron source at a wavelength, most frequently, of 0.976484 Å and recorded on CCD detector. […] The structure of the human TNF[…] (VC 2043) complexed with compound was solved by molecular replacement using Phaser with input model of 1TNF. […] Iterative manual model building using Coot (Emsley and Cowtan, 2004) and Refmac (Murshudov et al., 1997) continued until R and Rfree converged. […] The resolution of the structures was most frequently around 2.15 Å.
# Root mean squared deviation (RMSD) calculations were carried out to ascertain the distance of each of the crystal structures of distorted TNFα trimer to a reference structure.
# RMSD calculations were done using the program PyMOL (www.pymol.org). In this example version 1.7. was used. The cmd.rms PyMOL command was used with defined pairs of atoms. The atoms used were the backbone Ca's of certain residues within the β-strands of TNFα. The residue numbers used are shown below:
# These residue numbers are those within the published structure of TNFα with PDB code 1A8M and within the distorted TNFα trimer structures of this invention. The residue numbers are also according to the sequence of SEQ ID NO:36. The residues in each of the three chains with the TNFα structures, (labelled A, B, and C according to our instructions) were used.
# The command cmd.rms was used with the following arguments:
# rms=cmd.rms(“(moving)”, “(target)”, matchmaker=4, quiet=0, cycles=0)
# where “(moving)” is the selection of atoms in a given TNFα structure and “(target)” is the selection of equivalent atoms within the reference structure.
# The RMSD was calculated for each structure against all others. The “representative structure” or “Reference Structure” was chosen to be the one with the lowest sum RMSD to all others—the structure “Compound 34” or “Compound34.pdb”.
# Reference Structure (Compound 34) and Query Structure (Compound 64) were overlaid (see FIG. 17 with Reference Structure emboldened) by: • 1. […]
# TNFα, sequence (P01375 77-233 limits assumed): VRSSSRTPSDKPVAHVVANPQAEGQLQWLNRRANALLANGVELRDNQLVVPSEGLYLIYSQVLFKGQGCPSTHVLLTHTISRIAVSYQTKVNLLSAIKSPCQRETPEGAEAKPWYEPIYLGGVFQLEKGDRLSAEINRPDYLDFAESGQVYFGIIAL
# T1 sequence (P01375 with tags, fused parts or gaps): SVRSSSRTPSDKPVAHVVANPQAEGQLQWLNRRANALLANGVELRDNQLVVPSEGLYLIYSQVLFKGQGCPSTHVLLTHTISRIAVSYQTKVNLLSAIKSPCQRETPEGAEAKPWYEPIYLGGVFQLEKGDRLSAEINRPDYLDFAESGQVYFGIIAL
SMILES,off-rate when complexed with h-TNFα [1],RMSD (Å) with Compound 34 [2] [Å]
Cc1ccc(C)c(Cn2c(C(O)c3ccncc3)nc3ccccc32)c1 (stereo not shown) [Compound 3],no measurable off-rate,0.33
Cc1ccc(C)c(Cn2c(C(O)c3ccncc3)nc3ccc(-c4cnn(C)c4)cc32)c1 (stereo not shown) [Compound 15],no measurable off-rate,0.24
